Reference: patent publication US20220002288A1, “MONOBACTAM COMPOUNDS AND USE THEREFOR” (priority 2018, published 2022)
In brackets after ≈: the same amount, converted by molar mass.

Columns and labels:
[1] = system: Acinetobacter baumannii, Pseudomonas aeruginosa, and Escherichia coli; assay: In vitro antibacterial activity, summary statements over all strains of Experimental Example 1; type: cell-based; conditions: method of Experimental Example 1
Description: Compounds: The compounds prepared in the above examples and comparative examples. All test compounds were dissolved and diluted with DMSO, and the final concentrations were prepared as 64, 32, 16, 8, 4, 2, 1, 0.5, 0.25, 0.125, 0.0625 μg/mL in the experiment.
Bacterial strains: 6 strains of Acinetobacter baumannii (codenames: HDBAB-YK4, HDBAB-YK7, HDBAB-YK12, HDBAB-YK16, HDBAB_OXA_7, ATCC 19606), 2 strains of Pseudomonas aeruginosa (codenames: HDBPA-YK9, HDBPA)-YK15), 1 strain of Escherichia coli (codename: CLB30048), all provided by HD Biosciences (Shanghai) Co., Ltd.
The minimum inhibitory concentration (MIC) of each compound was recorded according to the guidelines of the Clinical and Laboratory Standards Institute.

[2] = system: drug-resistant Acinetobacter baumannii; assay: MIC in combination with Relebactam; type: cell-based
Description: In addition, the inventors of the present invention also tested the inhibitory activities of the compound of Example 1 and Compound C, respectively, in combination with Relebactam on drug-resistant Acinetobacter baumannii (the experimental method was the same as that in Experimental Example 1).

[3] = Pharmacokinetics of the compounds in mice; type: in vivo, BALB/c mice; conditions: compared with some compounds of the present invention
Description: Animals: male BALB/c mice, SPF grade, purchased from Changzhou Cavens Experimental Animal Co., Ltd.; 16-24 g, license number: SCXK (Su)2016-0010; 2 to 3 days of adaptation period were given before the experiment.
Instruments: API 4500 High Performance Liquid Chromatograph Coupled Triple Quadrupole Mass Spectrometer, and Analyst QS A01.01 Chromatography Workstation were both purchased from AB SCIEX of the United States; Milli-Q ultrapure water device was purchased from Millipore; CF16R XII desktop high-speed refrigerated centrifuge was purchased From Hitachi Company; Qilinbeier Vortex-5 oscillator was purchased from IKA Company of German; electric heating constant-temperature water bath was purchased from Changzhou Guohua Electric Appliance Co., Ltd.; electric pipette was purchased from Thermo Company of American; and microanalysis balance was purchased from Shanghai Mettler Co., Ltd.
2 mg of the test compound was weighed, added to physiological saline, vortexed for 2 min, and ultrasonicated for 3 min, to prepare a test solution with a concentration of 0.2 mg/mL for intravenous administration.
A single dose of 2 mg/kg of the test compound was administered to BALB/c mice via the tail vein, the dose volume being 0.1 mL/10 g. At 5 min, 15 min, 30 min, 1 h, 2 h, 4 h after administration, blood samples were collected from the orbital venous plexus into heparinized EP tubes (0.6 mL), which were temporarily placed on crushed ice.
The samples were centrifuged at 8000 rpm for 5 min. 15 μL of upper plasma were transferred to a 96-well plate. 150 μL of methanol:acetonitrile (v/v=1:1) (containing 20 ng/mL tolbutamide) was added to 15 μL of plasma, shaken for 3 min, and centrifuged at 4500 rpm for 5 min. 100 μL of supernatant was taken to a 2 mL deep well plate. 100 μL of diluent (pure water) was added. The samples were shaken for 3 min, and centrifuged at 4500 rpm for 5 min. 180 μL of the supernatant was transferred to the sample plate. The content of the compound in the supernatant sample was analyzed by LC-MS/MS, and various pharmacokinetic parameters were calculated with WinNonlin software.

[4] = system: clinically isolated Klebsiella pneumoniae; assay: MIC experiment of clinically sourced bacterial strains; type: cell-based; conditions: Klebsiella pneumoniae
Description: (§1) Compounds: the compound of Example 1 and Compound C of Comparative Example 3. Both test compounds were dissolved and diluted with DMSO, and the final concentrations were prepared as 64, 32, 16, 8, 4, 2, 1, 0.5, 0.25, 0.125, 0.0625 μg/mL in the experiment.
(§2) Bacterial strains: clinically isolated Acinetobacter baumannii, Pseudomonas aeruginosa, Klebsiella pneumoniae and Escherichia coli, all provided by HD Biosciences (Shanghai) Co., Ltd.
(§3) Medium: Trypticase soy agar (TSA) (BD BBL 211043), and Cation-adjusted Mueller Hinton broth (CAMHB) (BD BBL212322).
(§4) The experimental method was the same as that in the above Experimental Example 1.

[5] = system: clinically isolated Escherichia coli; assay: as above; type: cell-based
Description: as §1, §2, §3, §4

[6] = system: clinically isolated Pseudomonas aeruginosa; assay: as above; type: cell-based
Description: as §1, §2, §3, §4

[7] = system: clinically isolated Acinetobacter baumannii; assay: as above; type: cell-based; conditions: for MIC: Acinetobacter baumannii
Description: as §1, §2, §3, §4

Q: For `CC1(C)[C@H](NC(=O)/C(=N\O[C@@H](COc2ccc(-c3cn(CCCN)[n+](CC4CNC4)c3)cc2)C(=O)O)c2csc(N)n2)C(=O)N1OS(=O)(=O)[O-]` [Compound C, reference compound], which “in vitro antibacterial activity (in words)” value [1] is on record?
A: weaker

Q: What about the MIC ([2]; strain HDBAB-YK12, in combination with 4 μg/mL Relebactam) of the same compound?
A: 8 mg/L

Q: What about the MIC ([2]; strain HDBAB-YK16, in combination with 4 μg/mL Relebactam) of the same compound?
A: 16 mg/L

Q: What about the MIC ([2]; strain HDBAB_OXA_7, in combination with 4 μg/mL Relebactam) of the same compound?
A: 16 mg/L

Q: What about the “bioavailability (F) (in words)” value [3] of the same compound?
A: weaker

Q: And the MIC ([4]; clinical strain Kp309)?
A: 0.25 mg/L (≈ 0.34 µM)

Q: What about the MIC ([4]; clinical strain Kp310) of the same compound?
A: ≤ 0.063 mg/L

Q: And the MIC ([4]; clinical strain Kp472)?
A: 0.125 mg/L (≈ 0.17 µM)

Q: What about the MIC ([4]; clinical strain Kp510) of the same compound?
A: 0.25 mg/L (≈ 0.34 µM)

Q: And the MIC ([5]; clinical strain HDB0140)?
A: 2 mg/L (≈ 2.72 µM)

Q: And the MIC ([5]; clinical strain HDB0918)?
A: 0.25 mg/L (≈ 0.34 µM)

Q: And the MIC ([5]; clinical strain HDB1120)?
A: 0.125 mg/L (≈ 0.17 µM)

Q: What about the MIC ([5]; clinical strain HDB5510) of the same compound?
A: 0.25 mg/L (≈ 0.34 µM)

Q: What about the MIC ([5]; clinical strain HDB8244) of the same compound?
A: 0.25 mg/L (≈ 0.34 µM)

Q: What about the MIC ([6]; clinical strain P7) of the same compound?
A: 2 mg/L (≈ 2.72 µM)

Q: What about the MIC ([6]; clinical strain P43) of the same compound?
A: 0.25 mg/L (≈ 0.34 µM)

Q: And the MIC ([6]; clinical strain P155)?
A: 2 mg/L (≈ 2.72 µM)

Q: What about the MIC ([6]; clinical strain P157) of the same compound?
A: 2 mg/L (≈ 2.72 µM)

Q: And the MIC ([6]; clinical strain P162)?
A: 2 mg/L (≈ 2.72 µM)

Q: And the MIC ([7]; clinical strain A0242702)?
A: ≤ 0.063 mg/L

Q: And the MIC ([7]; clinical strain A0244122)?
A: 2 mg/L (≈ 2.72 µM)

Q: What about the MIC ([7]; clinical strain A0248164) of the same compound?
A: 2 mg/L (≈ 2.72 µM)

Q: What about the MIC ([7]; clinical strain A0248384) of the same compound?
A: 2 mg/L (≈ 2.72 µM)

Q: What about the MIC ([7]; clinical strain A0252247) of the same compound?
A: 0.125 mg/L (≈ 0.17 µM)

Q: And the MIC ([7]; clinical strain A0254384)?
A: 0.125 mg/L (≈ 0.17 µM)

Q: And the MIC ([7]; clinical strain A0255830)?
A: 16 mg/L (≈ 21.7 µM)

Q: And the MIC ([7]; clinical strain A0257674)?
A: 0.125 mg/L (≈ 0.17 µM)

Q: And the MIC ([7]; clinical strain A0258522)?
A: 0.125 mg/L (≈ 0.17 µM)

Q: What about the MIC ([7]; clinical strain A0262855) of the same compound?
A: 0.125 mg/L (≈ 0.17 µM)

Q: What about the MIC ([7]; clinical strain A0270386) of the same compound?
A: 1 mg/L (≈ 1.36 µM)

Q: What about the MIC ([7]; clinical strain A0272260) of the same compound?
A: 0.125 mg/L (≈ 0.17 µM)

Q: What about the MIC ([7]; clinical strain A0273375) of the same compound?
A: 1 mg/L (≈ 1.36 µM)

Q: And the MIC ([7]; clinical strain A0273826)?
A: 16 mg/L (≈ 21.7 µM)

Q: And the MIC ([7]; clinical strain A0274925)?
A: 0.25 mg/L (≈ 0.34 µM)

Q: And the MIC ([7]; clinical strain A0283307)?
A: 0.125 mg/L (≈ 0.17 µM)

Q: What about the MIC ([7]; clinical strain A0284214) of the same compound?
A: 0.125 mg/L (≈ 0.17 µM)

Q: What about the MIC ([7]; clinical strain A0284295) of the same compound?
A: 0.125 mg/L (≈ 0.17 µM)

Q: What about the MIC ([7]; clinical strain A0284552) of the same compound?
A: 0.5 mg/L (≈ 0.68 µM)

Q: And the MIC ([7]; clinical strain A0285002)?
A: 2 mg/L (≈ 2.72 µM)

Q: What about the MIC ([7]; clinical strain A0285050) of the same compound?
A: 0.25 mg/L (≈ 0.34 µM)

Q: And the MIC ([7]; clinical strain A0285231)?
A: 2 mg/L (≈ 2.72 µM)

Q: And the MIC ([7]; clinical strain A0285299)?
A: 0.25 mg/L (≈ 0.34 µM)

Q: And the MIC ([7]; clinical strain A0285369)?
A: ≤ 0.063 mg/L

Q: And the MIC ([7]; clinical strain A0285909)?
A: 16 mg/L (≈ 21.7 µM)

Q: And the MIC ([7]; clinical strain A0286065)?
A: 2 mg/L (≈ 2.72 µM)

Q: What about the MIC90 ([7]; clinically isolated Acinetobacter baumannii) of the same compound?
A: 16 mg/L (≈ 21.7 µM)
